Consider three substances from paper PMC9895975 (Scientific Reports, 2023).

Some results are limits rather than exact numbers.

Series [1] in a line: Sedimentation equilibrium in the analytical ultracentrifuge (SE-AUC, SEDFIT-MSTAR). It is filed as physicochemical. The conditions noted are these: for concentration from which the self-association (Mw,app) plateaus: range 0-10 mg/mL, hinge point and M* methods. The procedure:
(§1) Teicoplanin samples were prepared in a phosphate-chloride buffered saline solution (PBS, or “Paley buffer”) at pH ~ 6.8 and, by adding NaCl, adjusted to an ionic strength of I = 0.1 mol/L[38].
Sedimentation equilibrium experiments were used to obtain equilibrium concentration distribution profiles for absolute molecular weight measurement. An Optima XL-I analytical ultracentrifuge was also employed but at a lower temperature of 7 °C because of the longer duration of a sedimentation equilibrium experiment compared to sedimenation veloicity. To characterise the self-association/aggregation of teicoplanin, 12 mm double sector epoxy cells were loaded with the same volumes (100 μL ) of both solution and solvent and run at 45,000 rpm for a run time of ~ 48 h. Records of concentration distributions of teicoplanin at equilibrium were subsequently analysed using the model-independent SEDFIT-MSTAR algorithm. Since the non-ideality of teicoplanin is negligible we estimated that apparent weight average molar masses Mw,app were approximately equal to the true weight average molar masses Mw. The multiple concentrations used effectively represent repeats for the sedimentation equilibrium (and sedimentation velocity) experiments.
To determine the weight-average molar masses Mw of teicoplanin, the M* extrapolation method[45] and hinge point analysis, both incorporated in the sedimentation equilibrium-based SEDFIT–MSTAR software[44] were used. […] Rayleigh interference optics provides an accurate record of a sedimentation equilibrium concentration profile c(r) vs r, which means that the local concentration c(r) at the radial position r (cm) is from the rotation centre. M*(r) is a useful operational point average molar mass parameter. M*(r → rb) = Mw is the weight average molar mass over the whole macromolecular distribution, where r is the radial position at the cell base. This method is particularly advantageous for polydisperse/ or self-associating systems. As an additional check, the “hinge point method” (the value of the point weight average molar mass, Mw(r) at the “hinge point” in the sedimentation equilibrium distribution, i.e. the radial position in the cell where the local concentration c(r) = the original loading concentration) provides another estimate for the whole distribution molar mass Mw[44].

The conditions of series [2]: below that value a gel might be formed in solution; cited from earlier work. The procedure: Although it is important to explore how teicoplanin binds to the Lipid II moiety regardless of its phenotypes, the knowledge of the biological form of teicoplanin in an aqueous solution is of importance. Teicoplanin and its aglycon derivatives[25] use their long […] chain to attach themselves to the targeted sites. It is known that the minimum volume of solvent required to dissolve 400 mg of teicoplanin is 3 ml because, below that value, a gel might be formed in solution[10]. Teicoplanin derivatives have also been reported to create nano-sized aggregates in aqueous solution[26]. This gelati ...

The nature of series [3]: Conformational analysis from intrinsic viscosity (ELLIPS1, Einstein-Simha shape factor). The class given is physicochemical. The conditions noted are these: for axial ratio (a/b) oblate / axial ratio (a/b) prolate: ELLIPS1; for viscosity shape function ν: [η] = 3.2 mL/g; for swelling ratio vs/υ¯ through dynamic hydration: maximum value, corresponds to a/b = 1 (sphere), confirmed by SingleHYDFIT. An excerpt: In order to interpret this in terms of a molecular shape account needs to be taken of the contribution of the swollen specific volume of the assembly in solution vs (which will be swollen due to a time-averaged association with the surrounding solvent through dynamic hydrogen bonding and other associative processes)[43]:6 [η]=ν.vs
Equation (6) ν is the Einstein-Simha shape factor. vs is likely to be higher for the glycopeptide than for proteins due to the relatively large proportion of carbohydrate which tends to have a greater affinity for solvent. In Table 1 values of the shape factor ν , and their corresponding ellipsoid of revolution axial ratios a/b were calculated based on either a prolate or oblate model, using the routine ELLIPS1 (Harding et al. 1997) for 3 cases of vs/ υ¯ , including the (unlikely) case of no swelling vs/ υ¯ = 1. The maximum value for vs/ υ¯ ~ 2, which corresponds to the minimum value of a/b = 1 (i.e. a sphere, Fig. 6), and this seems the most likely scenario.

The nature of series [4]: Hydrodynamic radius by dynamic light scattering (DLS). It is filed as physicochemical. To be noted: 12.5 mg/mL; 20.0 °C; scattering angle 173°; Zetasizer Nano-S; averaged over several measurements. The procedure: Dynamic or quasi-elastic light scattering (DLS or QLS) measurements were made on the fixed scattering angle Zetasizer Nano-S system (Malvern instruments Ltd., Malvern UK) equipped with a 4mW He–Ne laser at a wavelength of 632.8nm[46],[47]. Samples in solution were measured in a quartz cuvette at 20.0 °C. A scattering angle of 173° was used, and collected in manual mode, requiring a measurement duration of 90 s, averaged over several measurements. The resulting data were analysed using the “Zetasizer Software (Version 7.1)” (Malvern Instruments Ltd., Malvern, UK), providing a volume distribution of translational diffusion coefficients based on a form of the CONTIN program. The viscosity of the buffer used was calculated using a solvent builder interface and takes the effects of buffer salts into account. The z-average hydrodynamic radii rz (nm), were evaluated from the z-average translational diffusion coefficients Dz by the Stokes–Einstein Eq. [47]:3 rz=kBT/{6πηoDz} where kB is the Boltzmann constant, T is the absolute temperature and η is the viscosity of the medium. […] (ii) the teicoplanin in its monomeric and multi-meric form were quasi-spheroidal and not asymmetric so there was no angular dependence of the measured Dz, values on anisotropic rotational diffusion effects—i.e. an extrapolation to zero angles was not necessary.

Series [5] can be described thus: Sedimentation equilibrium in the analytical ultracentrifuge (SE-AUC, SEDFIT-MSTAR). To be noted: M* method, 0-10 mg/mL, corresponds to the unimer. It is filed as physicochemical.
Series [6] can be described thus: Partial specific volume from solution/solvent densities (digital density meter). It is filed as physicochemical. The conditions noted are these: c = 10.2 mg/mL; Anton-Paar digital density meter; PBS. The procedure: The partial specific volume υ¯ from solution/ solvent densities was determined using an Anton-Paar (Graz, Austria) digital density meter, and application of:1 υ¯=1/ρ0·1-ρ-ρ0/c at a concentration, c, of 10.2 mg/mL, and where ρ and ρ0 are the densities of the solution and solvent, respectively.

Series [7] can be described thus: Global hydrodynamic fit SingleHYDFIT (E2 protocol). It is filed as physicochemical. To be noted: assumed molar mass of 18-mer (33835 Da) and of 19-mer (35714 Da), same result for both. The text has this: To check this, we use a global fitting approach known as SingleHYDFIT[54] which combines intrinsic viscosity data with sedimentation coefficient and dynamic light scattering (hydrodynamic radius) data together, along with the molecular weight and partial specific volume. It involves the minimization of a global fitting function (Fig. 7). The E2 protocol (ratio of ellipsoid) was chosen and run twice: once with an assumed molar mass equivalent of an 18-mer (33835 Da) and once again with an assumed molar mass of 19-mer (35714 Da). Delta (Δ) was plotted against axial ratio, where values < 1 mean oblate and > 1 mean prolate (Fig. 7).

A further series concerns SARS-CoV virus. To be noted: cited from earlier work.
A short description of series [8]: Intrinsic viscosity, capillary (rolling ball) viscometry. It is filed as physicochemical. The conditions noted are these: 10.2 mg/mL; 25.0 °C; rolling ball viscometer AMVn; Solomon-Ciuta relation; phosphate-chloride buffer pH 6.8, I = 0.10 M. How it is done:
Teicoplanin solutions were analysed using the capillary viscometer AMVn (Anton-Paar, Graz, Austria). This measurement was conducted at a temperature of 25.0 °C based on the rolling ball viscosity method. With a 1.4 mm steel ball moving in a 1.6 mm diameter glass capillary, the flow times (averaged over repeat measurements) of the solvent and solution were then determined. The relative viscosity was calculated from the equation:4 ηrel=ρ·t/ρ0·t0=ηsp+1 where ηsp is the specific viscosity. Then the intrinsic viscosity η was estimated from the Solomon-Ciuta relation[52] at a concentration of 10.2 mg/ml, which gave a sufficient flow time increment between solvent and solution:5 η≈1/c·2ηsp-2lnηrel^1/2

A short description of series [9]: Sedimentation velocity in the analytical ultracentrifuge (SV-AUC). It is filed as physicochemical. The conditions noted are these: for concentration above which the sedimentation coefficient distribution is unimodal (assembled form): SEDFIT. The procedure: as §1
Experiments to determine sedimentation coefficients and sedimentation coefficient distributions were performed at a temperature of 20.0 °C (at which standardised values are easily calculated) using an Optimal XL-I analytical ultracentrifuge (Beckman Instruments, Palo Alto, CA, USA) with Rayleigh interference optics. Teicoplanin samples (400 μL ) and reference solvent (PBS, 420 μL ) were injected into channels of the 12 mm double sector epoxy cells with sapphire windows. These cells were then centrifuged at 47,500 rpm for a run time of ~ 24 h and the data obtained were analysed in SEDFIT using the least squares, ls-g*(s) processing method. This generates the sedimentation coefficient distribution, g(s) versus sT,b , where sT,b is the sedimentation coefficient, at temperature T in buffer b. The s value in Svedberg units, S = 10^-13 seconds, was then normalised to standard conditions (density ρ20,w and viscosity η20,w of water at 20.0 °C) to give s20,w from the Eq. [43]:2 s20,w=1-υ¯·ρ20,w/1-υ¯·ρT,b·ηT,b/η20,w·sT,b where ρT,b and ηT,b are the density and the viscosity of buffer b at temperature T, respectively.

For series [10] the following is noted: without a lipid chain; cited from earlier work.
The next series has as its system CTSL-dependent viruses. The conditions noted are these: cited from earlier work.
Where [11] appears, read: phosphate-chloride buffer pH 6.8, I = 0.10 M, 7 °C, SEDFIT-MSTAR.
The mark [12] stands for this setting: assumed vs/υ¯ = 1 (no swelling).

On to teicoplanin A2, for which the “number of monomers in the assembly (mers), M* method” value in [1] (from plateau Mw 33,000 g/mol, buffer pH 6.8, I = 0.10 M) is on record as ~ 18 mers. In [1] (from plateau Mw 35,400 g/mol, buffer pH 6.8, I = 0.10 M), the “number of monomers in the assembly (mers), hinge point method” value is given as around 19 ± 1 mers. Moreover, the “plateau weight average molar mass Mw,app, M* method” value in series [1] (phosphate-chloride buffer pH 6.8, I = 0.10 M, 7 °C, 45,000 rpm, ~48 h, SEDFIT-MSTAR, c from 1 mg/mL) was 33,000 ± 1000 g/mol. Further, the “plateau weight average molar mass Mw,app, hinge point method” value in [1] (phosphate-chloride buffer pH 6.8, I = 0.10 M, 7 °C, 45,000 rpm, ~48 h, SEDFIT-MSTAR, c from 1 mg/mL up to 10 mg/mL) was 35,400 ± 1000 g/mol. In addition, the “apparent weight average molar mass Mw extrapolated to zero concentration (M* method)” value in [1] (setting [11]) is on record as 1.9 ± 0.1 kDa. The “weight average molar mass extrapolated to zero concentration, hinge point method Mw(rhinge)” value in series [1] (setting [11]) is 2.7 ± 0.1 kDa. Also, the “concentration from which the self-association (Mw,app) plateaus” value was above 1000 µg/mL in series [1] (phosphate-chloride buffer pH 6.8, I = 0.10 M) and 1000 µg/mL in series [1] (phosphate-chloride buffer pH 6.8, I = 0.10 M, listed as teicoplanin). In addition, in series [1] (phosphate-chloride buffer pH 6.8, I = 0.10 mol/L, AUC and viscometry combined), the “size of the self-associated assembly (n-mer), overall” value is reported as 18–19 mer. In series [2], the “minimum volume of solvent required to dissolve 400 mg” value was 3 mL. For the same substance, the “swollen specific volume vs” value is 0.64 mL/g in series [3] (setting [12]), 0.96 mL/g in series [3] (assumed vs/υ¯ = 1.5) and 1.28 mL/g in series [3] (assumed vs/υ¯ = 2). Besides, the “axial ratio (a/b) oblate” value stood at 5.4 in series [3] (setting [12]), 2.8 in series [3] (assumed vs/υ¯ = 1.5) and 1 in series [3] (assumed vs/υ¯ = 2). Besides, the “axial ratio (a/b) prolate” value in [3] (setting [12]) is recorded as 4.3; in series [3] (assumed vs/υ¯ = 1.5) it was 2.5; in [3] (assumed vs/υ¯ = 2), 1. In addition, the “viscosity shape function ν” value in series [3] (setting [12]) was 5.0; in series [3] (assumed vs/υ¯ = 1.5), 3.3; in series [3] (assumed vs/υ¯ = 2), 2.5. Besides, the results for the “swelling ratio vs/υ¯ through dynamic hydration” value in [3] and in series [3] (listed as teicoplanin) were ~ 2 and 2, respectively. In addition, the “z-average hydrodynamic radius rz” value in series [4] is listed as ~ 3.2 nm. In addition, in series [5], the “weight-average molar mass Mw in 6 M GuHCl” value worked out at 1.75 ± 0.35 kDa. Moreover, the “partial specific volume υ¯” value in [6] was 0.64 ± 0.01 mL/g. In addition, the “axial ratio of the assembly from SingleHYDFIT” value in series [7] came to 1.0 ± 0.0. In addition, the “effect on cell entry of the SARS-CoV virus” value in the series with SARS-CoV virus is “inhibited cell entry”. For the same substance, the “intrinsic viscosity [η]” value in series [8] came to 3.2 ± 0.1 mL/g. The “s-value (not normalised) of teicoplanin dissolved in 6 M GuHCl” value in [9] (6 M GuHCl, SV-AUC) is listed as ~ 0.7 S. Besides, the “s20,w of teicoplanin dissolved in 6 M GuHCl” value in series [9] (6 M GuHCl, SV-AUC, normalised to water at 20.0 °C) is listed as 1.17 ± 0.01 S. Besides, the “sedimentation coefficient s20,w of the self-associated assembly (upper extrapolated value)” value in series [9] (phosphate-chloride buffer pH 6.8, I = 0.10 M, 20.0 °C, 47,500 rpm, ~24 h, Rayleigh interference optics, SEDFIT ls-g*(s), s vs c plot, 0-5 mg/mL) is ~ 4.65 S. Besides, the “concentration above which the sedimentation coefficient distribution is unimodal (assembled form)” value is above 500 µg/mL in series [9] (phosphate-chloride buffer pH 6.8, I = 0.10 M, 20.0 °C) and above 500 µg/mL in [9] (phosphate-chloride buffer pH 6.8, I = 0.10 M, 20.0 °C, listed as teicoplanin). Also, the “sedimentation coefficient, lower extrapolated value (predicted value for a spheroidal unimer)” value in series [9] (phosphate-chloride buffer pH 6.8, I = 0.10 M, 20.0 °C, s vs c plot extrapolated to low concentration) was ~ 0.7 S. Moreover, in [9] (phosphate-chloride buffer pH 6.8, I = 0.10 mol/L, 20.0 °C), the “concentration below which the assembly dissociates (separation, bimodality)” value was below 500 µg/mL.

With teicoplanin aglycon, in series [10], the self-association in solution entry is reported as “dimerise weakly”.

For vancomycin, the “antiviral activity against CTSL-dependent viruses” value with CTSL-dependent viruses was “cannot express antiviral activity”.
